In brackets after ≈: the same amount, converted by molar mass. Several values for one entry are separate records, joined by “and”; a condition that tells them apart may be missing. Equal values may be shown once. Read-outs that look alike come from different tables or passages of the source.
Columns and labels:
[1] = system: P. berghei-GFP parasites; experiment: modified Thompson test; assay type: in vivo, P. berghei; mice; settings: for No. of Cures / % Inhibition Day 6 PI: 10 mg/kg oral on days 3, 4 and 5 PI; for No. of Cures: survival to day 30 PI with parasitemia <1%; for % Inhibition Day 6 PI: vs untreated control animals
Protocol: Mice were infected with 1×10^6 P. berghei-GFP parasites and compounds were dosed orally on days 3, 4 and 5 PI with a dose of 10 mg/kg of compound suspended or dissolved in HEC/Tween or PEG 400. Parasitemia was observed by flow cytometry on days 3, 6, 9, 13, 21, and 30 PI. Compounds with animal survival up to day 30 PI and parasitemia levels of less than 1% on day 30 PI were considered to be cures. Lastly, animals with more than 40% parasitemia levels were euthanized.
On days 3, 6, 9, 13, 21, and 30 PE, parasitemia was monitored by Giemsa-stained blood smears. Both compounds were evaluated by the reduction of parasitemia on day 6 PE and the survival up to day 30 PE.

[2] = system: J774 mammalian cells; experiment: cytotoxicity to J774 cells; assay type: cell-based; settings: Mus musculus
Protocol: This allowed a simplified method for comparing the different assays being simultaneously run. Additionally, each compound was also tested for cytotoxicity using mammalian J774 cell lines in a 96-well plate format.^12-14, 16

[3] = system: malarial strain TM90-C2B (mefloquine, chloroquine, atovaquone, and pyrimethamine-resistant); experiment: microbe, parasite or virus in culture; assay type: cell-based, P. falciparum; settings: for EC50: Plasmodium falciparum
Text: Ideally, the RI of a compound should lie between 0.3 and 3.0 in order to avoid rapidly inducing resistance in the parasite. […]

[4] = system: malarial strain W2 (pyrimethamine and chloroquine-resistant); experiment: in vitro antimalarial activity against multidrug resistant strain W2; assay type: cell-based, P. falciparum; settings: Plasmodium falciparum
[5] = system: Pb-infected mice; experiment: in vivo efficacy scouting assay against blood stages; design: species or system P. berghei; mice; settings: for inhibition in vivo at 50 mg/kg: Plasmodium berghei, 144 h, read-out: % Inhibition Day 6 PI; for activities in these scout assays: result in words
Protocol: The screening involved a single oral 50 mg/kg dose 1 day post infection (PI) and an assessment of parasitemia on days 3 PI and 6 PI (Table 6).
The screening was performed by treating two infected mice with a single 50 mg/kg oral dose of test compound suspended in PEG400 on day 1 postexposure (PE) followed by assessing parasitemia on days 3 and 6 PE.

[6] = lipophilicity log D at pH 7.4; assay type: physicochemical; settings: octanol/water
Text: Furthermore, to profile the properties of the piperazinyl-4(1H)-quinolones, and to identify potential limitations, aqueous solubility and lipophilicity log D were experimentally determined via LC/MS-based assays as described by the Manetsch laboratory previously^8,10,31,32 (Tables 9-12). Encouragingly, the piperazinyl-4(1H)-quinolones were much more soluble than the previously described phenoxyethoxy-4(1H)-quinolone analogues.^19 As expected, the solubility of all compounds was affected by pH, with better solubility under more acidic conditions.
In parallel to testing the compounds for in vitro antimalarial activity, a limited structure-property relationship (SPR) study focusing on log D and aqueous solubility was conducted to assess potential physiochemical liabilities (FIG. 22). […] For these reasons, physicochemical properties were not strongly considered as selection criteria for in vivo efficacy studies.

[7] = aqueous solubility (LC/MS- or HPLC-based assay); assay type: physicochemical
How it was run: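 Aqueous solubility and log D (pH 7.4) determined by LC/MS-based assays; solubility examined at more than one pH.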

[8] = system: P. berghei sporozoite infected mice; experiment: in vivo efficacy against liver stages, bioluminescence imaging; settings: for % Inhibition Day 9 PI: single dose 1 hour after infection; for protection by bioluminescence imaging: 44 h, day 6, 9 and 13 PI, 25, 50, 100 mg/kg oral or subcutaneous, result in words
Protocol: Animals (n=5 per group) received a single dose by gavage 1 hour after inoculation with sporozoites. Representative images taken at 44 h, day 6, day 9, and day 13 after infection are shown. At 44 h, bioluminescent signal was detected in control untreated animals, with the highest intensity noted in the area overlaying the liver, consistent with the presence of liver-stage parasites.
At 44 h PI, day 6 PI, day 9 PI, and day 13 PI, compound efficacy was determined by bioluminescence imaging via injection of D-luciferin. Both compounds were administered orally or subcutaneously at increasing doses of 25 mg/kg, 50 mg/kg, and 100 mg/kg in PEG 400. […] Progression of parasitemia was monitored up to 30 days after infection (Table 8).

[9] = system: P. berghei sporozoites expressing luciferase; experiment: in vitro liver stage activity, luciferase sporozoites infecting HEPG2 hepatoma cells; assay type: cell-based; settings: Plasmodium berghei
[10] = single oral 50 mg/kg dose 1 day PI
[11] = single oral 50 mg/kg dose 1 day PI, vs untreated animals
[12] = TM90, read-out: EC50 TM90-C2B (nM)
[13] = aqueous solution, pH 2, simulated gastric fluid, pH 2.0, read-out: Solubility pH 2.0
[14] = aqueous solution, pH 6.5, aqueous buffer, pH 6.5, read-out: Solubility pH 6.5
[15] = aqueous solution (buffer not named), pH 2, simulated gastric fluid, pH 2.0, read-out: Solubility pH 2.0
[16] = aqueous solution (buffer not named), pH 6.5, aqueous buffer, pH 6.5, read-out: Solubility pH 6.5
[17] = aqueous medium, pH 2, simulated gastric fluid, pH 2.0, read-out: Solubility pH 2.0
[18] = aqueous medium, pH 6.5, aqueous buffer, pH 6.5, read-out: Solubility pH 6.5
[19] = Example 2: two mice, single 50 mg/kg oral dose in PEG400 on day 1 PE

| SMILES | No. of Cures [1] | EC50 ([4]; read-out: EC50 W2 (nM)) [nM] | % Inhibition Day 6 PI [5, 11] | EC50 ([2]; J774, read-out: EC50 J774 (μM)) [µM] | EC50 [3, 12] [nM] | chromatographic logD [6] | EC50 ([9]; HEPG2 cells) [pM] | solubility [7, 17] [µM] | solubility [7, 18] [µM] | other results |
| --- | --- | --- | --- | --- | --- | --- | --- | --- | --- | --- |
| O=C1C(O)=C([C@H]2CC[C@H](c3ccc(Cl)cc3)CC2)C(=O)c2ccccc21 [Atovaquone, atovaquone, reference compound] | 5/5 |  |  |  |  |  |  |  |  | EC50 ([2]; J774, cytotoxicity, 96 well plate format, read-out: EC50 J774): 28.3 µM; EC50 ([3]; TM90, read-out: EC50 TM90-C2B): 18400 nM |
| COC(=O)c1c[nH]c2cc(CN3CCN(c4ccc(C(F)(F)F)cc4)CC3)c(C)cc2c1=O [Compound 8v, Methyl 6-methyl-4-oxo-7-((4-(4-(trifluoromethyl)phenyl)piperazin-1-yl)methyl)-1,4-dihydroquinoline-3-carboxylate] | 3 of the 5 and 3/5 | 0.066 | completely inhibited parasite growth | > 20 | 101 | 3.73 |  |  |  | EC50 ([4]; read-out: EC50 W2): 0.066 nM; inhibition in vivo at 50 mg/kg ([5]; po): > 85%; activities in these scout assays [5, 10]: excellent activities; % Inhibition Day 3 PI [5, 11]: full inhibition; RI ([3]; RI = EC50 TM90-C2B/EC50 W2): 1530; solubility [7, 13]: ≥ 80 µM; solubility [7, 14]: 1 to 19.9 µM (≈ 0.459 to 9.14 µg/mL) |
| COc1cc(NC(C)CCCN)c2ncccc2c1 (centres unmarked) [Primaquine, reference compound] |  |  |  |  |  |  |  |  |  | No. of Cures ([8]; 50 mg/kg oral): 2/5; % Inhibition Day 9 PI ([8]; 50 mg/kg oral): >99.0% |
| O=c1c(Br)c[nH]c2cc(CN3CCN(c4ccc(F)cc4)CC3)ccc12 [Compound 8ak, 3-Bromo-7-((4-(4-fluorophenyl)piperazin-1-yl)methyl) quinolin-4(1H)-one] | 0/5 | 812 |  | > 20 | 2430 | 2.91 | 858 |  |  | % Inhibition Day 6 PI [1]: low inhibition; solubility [7, 15]: ≥ 80 µM; solubility [7, 16]: 20 to 39.9 µM (≈ 8.33 to 16.6 µg/mL) |
| COC(=O)c1c[nH]c2cc(CN3CCN(Cc4ccc(OC)cc4)CC3)ccc2c1=O [Compound 8l, Methyl 7-((4-(4-methoxybenzyl)piperazin-1-yl)methyl)-4-oxo-1,4-dihydroquinoline-3-carboxylate] |  | 2.5 |  |  | 799 | 1.66 | 83400 | ≥ 80 | ≥ 80 | No. of Cures ([8]; 25 mg/kg oral): 0/5; % Inhibition Day 9 PI ([8]; 25 mg/kg oral): 49.1%; No. of Cures ([8]; 50 mg/kg oral): 0/5; No. of Cures ([8]; 50 mg/kg subcutaneous): 0/5; % Inhibition Day 9 PI ([8]; 50 mg/kg subcutaneous): 20.1%; No. of Cures ([8]; 100 mg/kg oral): one of five and 1/5; protection by bioluminescence imaging [8]: full protection at all time points only at an oral dose of 100 mg/kg; inhibition in vivo at 50 mg/kg [5, 11]: ~40% |
| Cc1[nH]c2cc(CN3CCN(c4ccc(F)cc4)CC3)ccc2c(=O)c1Cl [Compound 8ao, 3-Chloro-7-((4-(4-fluorophenyl)piperazin-1-yl)methyl)-2-methylquinolin-4(1H)-one] | 0/5 | 38.5 |  | > 20 | 52.1 | 2.73 |  |  |  | % Inhibition Day 6 PI [1]: low inhibition; solubility [7, 15]: ≥ 80 µM; solubility [7, 16]: 1 to 19.9 µM (≈ 0.386 to 7.68 µg/mL) |
| COC(=O)c1c[nH]c2cc(CN3CCN(c4ccccc4)CC3)c(OC)cc2c1=O [Compound 8w, Methyl 6-methoxy-4-oxo-7-((4-phenylpiperazin-1-yl)methyl)-1,4-dihydroquinoline-3-carboxylate] |  | 1.62 | 82.4% | > 20 | 493 | 1.32 | 113000 | ≥ 80 | ≥ 80 | activities in these scout assays [5, 10]: excellent activities |
| CCCCc1cc2c(=O)c(C(=O)OC)c[nH]c2cc1OCCOc1ccccc1 [Compound 6b, Methyl 6-Butyl-4-oxo-7-(2-phenoxyethoxy)-1,4-dihydroquinoline-3-carboxylate, reference compound] |  |  |  |  | 7.89 |  |  |  |  | EC50 ([4]; read-out: EC50 W2): 0.039 nM; day mice were sacrificed ([1]; Example 2: 10 mg/kg oral days 3, 4, 5, controls sacrificed day 13): 13; % inhibition on day 6 PE ([1]; Example 2: 10 mg/kg oral days 3, 4, 5 in HEC/Tween, Giemsa-stained smears): no inhibition; % inhibition on day 3 PE [5, 19]: 76.9%; % inhibition on day 6 PE [5, 19]: 49%; EC50 ([9]; HepG2, text values printed in pM): 52 pM |
| COC(=O)c1c[nH]c2cc(CN3CCN(Cc4ccccc4)CC3)c(C)cc2c1=O [Compound 8r, Methyl 7-((4-benzylpiperazin-1-yl)methyl)-6-methyl-4-oxo-1,4-dihydroquinoline-3-carboxylate] |  | 1.45 | little to moderate protection | > 20 | 890 | 1.94 | 9460 | ≥ 80 | ≥ 80 |  |
| COC(=O)c1c[nH]c2cc(CN3CCN(c4ccc(F)cc4)CC3)c(OC)cc2c1=O [Compound 8aa, Methyl 7-((4-(4-fluorophenyl)piperazin-1-yl)methyl)-6-methoxy-4-oxo-1,4-dihydroquinoline-3-carboxylate] |  | 1.79 | 56.9% | > 20 | 218 | 1.31 | 32300 |  |  | activities in these scout assays [5, 10]: excellent activities; solubility [7, 13]: 60 to 79.9 µM (≈ 25.5 to 34 µg/mL); solubility [7, 14]: ≥ 80 µM |
| COC(=O)c1c[nH]c2cc(CN3CCN(c4ccccc4)CC3)ccc2c1=O [Compound 8j, Methyl 4-oxo-7-((4-phenylpiperazin-1-yl)methyl)-1,4-dihydroquinoline-3-carboxylate] |  | 1.25 |  |  | 483 | 0.86 | 4740 | ≥ 80 | ≥ 80 | No. of Cures ([8]; 25 mg/kg oral): 2/5; % Inhibition Day 9 PI ([8]; 25 mg/kg oral): 65.3%; No. of Cures ([8]; 50 mg/kg oral): 2/5; % Inhibition Day 9 PI ([8]; 50 mg/kg oral): 85.1%; No. of Cures ([8]; 50 mg/kg subcutaneous): 3/5; % Inhibition Day 9 PI ([8]; 50 mg/kg subcutaneous): >99.0%; No. of Cures ([8]; 100 mg/kg oral): 5/5; % Inhibition Day 9 PI ([8]; 100 mg/kg oral): >99.0%; protection by bioluminescence imaging [8]: no luminescence was observed; animals cured (survival curves) ([8]; over all doses tested, 25-100 mg/kg): two or more out of five |

Source: US10000452B1, “Quinolone-based compounds, formulations, and uses thereof” (University of South Florida, priority 2016, dated 2018)
